# In EPA's ToxRefDB 2:
# Key:
# rabbit [1] = conditions: Prenatal developmental toxicity study, himalayan, Injection, Intravenous, dose end: 18 GD, group: maternal
# rat [2] = conditions: Fertility (Segment I), wistar, Oral, Gavage/Intubation, dose end: 7 GD
# rat [3] = conditions: Sub-acute repeat dose toxicity; long evans; Oral; Gavage/Intubation; dose end: 4 week; group: systemic; systemic / in life observation / body weight / body weight gain + systemic / in life observation / clinical signs / drooping eyelids (ptosis…
# rabbit [4] = conditions: Prenatal developmental toxicity study, himalayan, Oral, Gavage/Intubation, dose end: 18 GD
# rabbit [5] = conditions: Prenatal developmental toxicity study, himalayan, Oral, Gavage/Intubation, dose end: 18 GD; remark: listed apart in the source
# rat [6] = conditions: Sub-acute repeat dose toxicity, sprague dawley, Oral, Gavage/Intubation, dose end: 4 week, group: systemic
# mouse = conditions: Combined chronic toxicity/carcinogenicity; other; Oral; Feed; dose end: 365 day; group: systemic; systemic / pathology gross / full gross necropsy / lymphoma malignant
# rat [7] = conditions: Combined chronic toxicity/carcinogenicity; fischer; Oral; Feed; dose end: 365 day; group: systemic; systemic / in life observation / body weight / body weight
# [8] = systemic / in life observation / body weight / body weight gain + systemic / in life observation / food consumption / food consumption + …
# [9] = group: maternal, reproductive / reproductive performance / implantations / implantations + reproductive / reproductive performance / preimplantation loss / …
# [10] = group: parental, systemic / in life observation / clinical signs / salivation + systemic / in life observation / clinical signs / tremors + systemic / in …
# [11] = group: developmental, developmental / developmental malformation / bone / incomplete ossification + developmental / developmental malformation / bone / short + …
# [12] = group: maternal, systemic / in life observation / clinical signs / motor activity + systemic / in life observation / mortality / mortality
# [13] = group: developmental, developmental / developmental malformation / paw / digit / [other]
# [14] = group: maternal, systemic / in life observation / body weight / body weight gain + systemic / in life observation / clinical signs / [other] + systemic / in …
# [15] = group: maternal, systemic / in life observation / clinical signs / ataxia + systemic / in life observation / clinical signs / motor activity + systemic / in …
# [16] = systemic / clinical chemistry / adrenocorticotropic hormone (acth) / adrenocorticotropic hormone (acth)
# [17] = systemic / clinical chemistry / adrenocorticotropic hormone (acth) / adrenocorticotropic hormone (acth) + systemic / clinical chemistry / …
compound,measurement,setting,value
COc1cccc([C@H](O)C2CCN(CCc3ccc(F)cc3)CC2)c1OC [Volinanserin],LEL,rabbit [1]; systemic / in life observation / body weight / body weight gain + systemic / in life observation / food consumption / food consumption,3 mg/kg/day
same,LOAEL,rabbit [1]; [8],> 4.5 mg/kg/day
same,NEL,rabbit [1]; [8],0.2 mg/kg/day
same,NOAEL,rabbit [1]; [8],≥ 4.5 mg/kg/day
same,LEL,rat [2]; [9],200 mg/kg/day
same,LOAEL,rat [2]; [9],> 200 mg/kg/day
same,NOAEL,rat [2]; [9],≥ 200 mg/kg/day
same,NEL,rat [2]; [10],20 mg/kg/day
same,NOAEL,rat [2]; [10],20 mg/kg/day
same,LEL,rat [3],150 mg/kg/day
same,LOAEL,rat [3],> 150 mg/kg/day
same,NEL,rat [3],50 mg/kg/day
same,NOAEL,rat [3],≥ 150 mg/kg/day
same,LEL,rabbit [4]; [11],40 mg/kg/day
same,LOAEL,rabbit [4]; [11],> 40 mg/kg/day
same,NEL,rabbit [4]; [11],12.5 mg/kg/day
same,NOAEL,rabbit [4]; [11],≥ 40 mg/kg/day
same,LEL,rabbit [4]; [12],40 mg/kg/day
same,LOAEL,rabbit [4]; [12],> 40 mg/kg/day
same,NEL,rabbit [4]; [12],12.5 mg/kg/day
same,NOAEL,rabbit [4]; [12],≥ 40 mg/kg/day
same,LEL,rabbit [5]; [13],50 mg/kg/day
same,LOAEL,rabbit [5]; [13],> 100 mg/kg/day
same,NEL,rabbit [5]; [13],< 50 mg/kg/day
same,NOAEL,rabbit [5]; [13],≥ 100 mg/kg/day
same,LOAEL,rabbit [5]; [14],> 100 mg/kg/day
same,NOAEL,rabbit [5]; [14],≥ 100 mg/kg/day
same,LEL,rabbit [5]; [15],50 mg/kg/day
same,NEL,rabbit [5]; [15],< 50 mg/kg/day
same,LEL,rat [6]; [16],12.5 mg/kg/day
same,NEL,rat [6]; [16],< 12.5 mg/kg/day
same,LOAEL,rat [6]; [17],> 75 mg/kg/day
same,NOAEL,rat [6]; [17],≥ 75 mg/kg/day
Cc1ccc(NC(N)=O)cc1 [p-Tolylurea],LEL,mouse,300 mg/kg/day
same,LOAEL,mouse,> 300 mg/kg/day
same,NEL,mouse,< 300 mg/kg/day
same,NOAEL,mouse,≥ 300 mg/kg/day
same,LEL,rat [7],100 mg/kg/day
same,LOAEL,rat [7],> 100 mg/kg/day
same,NEL,rat [7],< 100 mg/kg/day
same,NOAEL,rat [7],≥ 100 mg/kg/day
